According to US6214872A, “Aryloxyarylsulfonylamino hydroxamic acid derivatives” (Pfizer Inc., priority 1999, dated 2001):
“And” between values parts separate entries of the source, which are not always exact repeats. Equal entries are not always repeated.

Tests used:
[1] = biological target: Human recombinant MMP-13 (collagenase 3) (Homo sapiens, UniProt P45452); experiment: Inhibition of MMP-13; assay type: biochemical; conditions: human recombinant MMP-13, fluorogenic substrate
Procedure: Human recombinant MMP-13 is activated with 2 mM APMA (p-aminophenyl mercuric acetate) for 1.5 hours, at 37° C. and is diluted to […] in assay buffer (50 mM Tris, pH 7.5, 200 mM sodium chloride, 5 mM calcium chloride, […], 0.02% brij). Twenty-five microliters of diluted enzyme is added per well of a 96 well microfluor plate. The enzyme is then diluted in a 1:4 ratio in the assay by the addition of inhibitor and substrate to give a final concentration in the assay of […]. 10 mM stock solutions of inhibitors are made up in dimethyl sulfoxide and then diluted in assay buffer as per the inhibitor dilution scheme for inhibition of human collagenase (MMP-1): Twenty-five microliters of each concentration is added in triplicate to the microfluor plate. The final concentrations in the assay are 30 mM, 3 mM, 0.3 mM, and 0.03 mM. Substrate ([…]) is prepared as for inhibition of human collagenase (MMP-1) and […] is added to each well to give a final assay concentration of 10 mM. Fluorescence readings (360 nm excitation; 450 emission) are taken at time 0 and every 5 minutes for 1 hour. Positive controls consist of enzyme and substrate with no inhibitor and blanks consist of substrate only. IC50 's are determined as per inhibition of human collagenase (MMP-1). If IC50 's are reported to be less than […], inhibitors are then assayed at final concentrations of 0.3 mM, 0.03 mM, 0.003 mM and 0.0003 mM.

[2] = biological target: T1, Human Collagenase (MMP-1) (Homo sapiens, UniProt P03956); experiment: Inhibition of Human Collagenase (MMP-1); assay type: biochemical; conditions: Table 1; human recombinant collagenase, fluorogenic substrate, room temperature
T1 sequence (P03956 100-469): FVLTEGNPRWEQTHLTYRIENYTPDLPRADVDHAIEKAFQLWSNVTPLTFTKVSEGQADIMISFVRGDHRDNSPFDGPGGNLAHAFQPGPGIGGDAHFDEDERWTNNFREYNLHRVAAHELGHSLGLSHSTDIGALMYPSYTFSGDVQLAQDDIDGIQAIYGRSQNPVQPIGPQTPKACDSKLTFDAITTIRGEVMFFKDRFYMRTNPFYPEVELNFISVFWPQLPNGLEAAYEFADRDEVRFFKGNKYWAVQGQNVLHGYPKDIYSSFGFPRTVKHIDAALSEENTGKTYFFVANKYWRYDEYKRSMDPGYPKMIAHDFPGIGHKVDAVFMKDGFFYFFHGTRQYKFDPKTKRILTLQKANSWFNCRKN
Procedure: Human recombinant collagenase is activated with trypsin using the following ratio: 10 mg trypsin per 100 mg of collagenase. The trypsin and collagenase are incubated at room temperature for 10 minutes then a five fold excess (50 mg/10 mg trypsin) of soybean trypsin inhibitor is added. 10 mM stock solutions of inhibitors are made up in dimethyl sulfoxide and then diluted using the following Scheme: 10 mM→120 μM→12 μM→1.2 μM→0.12 μM Twenty-five microliters of each concentration is then added in triplicate to appropriate wells of a 96 well microfluor plate. The final concentration of inhibitor will be a 1:4 dilution after addition of enzyme and substrate. Positive controls (enzyme, no inhibitor) are set up in wells D1-D6 and blanks (no enzyme, no inhibitors) are set in wells D7-D12. Collagenase is diluted to 400 ng/ml and […] is then added to appropriate wells of the microfluor plate. Final concentration of collagenase in the assay is 100 ng/ml. Substrate ([…]) is made as a 5 mM stock in dimethyl sulfoxide and then diluted to […] in assay buffer. The assay is initiated by the addition of […] substrate per well of the microfluor plate to give a final concentration of 10 mM. Fluorescence readings (360 nm excitation, 460 nm emission) were taken at time 0 and then at 20 minute intervals. The assay is conducted at room temperature with a typical assay time of 3 hours. Fluorescence vs time is then plotted for both the blank and collagenase containing samples (data from triplicate determinations is averaged). […] The zero time is used as a blank for each compound at each concentration and these values are subtracted from the 120 minute data. Data is plotted as inhibitor concentration vs % control (inhibitor fluorescence divided by fluorescence of collagenase alone×100). IC50 's are determined from the concentration of inhibitor that gives a signal that is 50% of the control. If IC50 's are reported to be <0.03 mM then the inhibitors are assayed at concentrations of 0.3 mM, 0.03 mM, […] and 0.003 mM.

Row | Structure (SMILES) | IC50 [1] | IC50 [2]
1 | COc1ccc(S(=O)(=O)N(CCC(=O)O)C(C)(C)C(=O)NO)cc1 [methyl, methyl, hydrogen, methoxy] | 590 nM and 730 nM | 12000 nM
2 | COc1ccc(S(=O)(=O)N(CCC(=O)O)C2(C(=O)NO)CCCC2)cc1 [cyclopentyl, --, hydrogen, methoxy] | 21 nM and 25 nM | 800 nM and 700 nM
3 | COc1ccc(S(=O)(=O)N(CCC(=O)O)C(C(=O)NO)C2CCCCC2)cc1 (centres unmarked) [cyclohexyl, hydrogen, hydrogen, methoxy] | 4 nM and 2 nM | 18 nM and 22 nM
4 | CCOC(=O)CCN(C1(C(=O)NO)CCCC1)S(=O)(=O)c1ccc(Oc2ccc(F)cc2)cc1 [Example 1, 3-[[4-(4-FLUOROPHENOXY)BENZENESULFONYL]-(1-HYDROXY-CARBAMOYL CYCLOPENTYL)AMINO]-PROPIONIC ACID ETHYL ESTER] | 0.9 nM | 100 nM
